# In patent publication US6211200A, “Metal complexes” (SmithKline Beecham Corporation, priority 1998, dated 2001):
# T1: G-CSF receptor (Mus musculus, UniProt P40223)
# T1 construct: they express endogenous G-CSF receptors; endogenous in cells; host or cells: NFS60 (murine myeloid cell line) containing a G-CSF-responsive element / luciferase reporter
# T1 sequence (P40223 26-837): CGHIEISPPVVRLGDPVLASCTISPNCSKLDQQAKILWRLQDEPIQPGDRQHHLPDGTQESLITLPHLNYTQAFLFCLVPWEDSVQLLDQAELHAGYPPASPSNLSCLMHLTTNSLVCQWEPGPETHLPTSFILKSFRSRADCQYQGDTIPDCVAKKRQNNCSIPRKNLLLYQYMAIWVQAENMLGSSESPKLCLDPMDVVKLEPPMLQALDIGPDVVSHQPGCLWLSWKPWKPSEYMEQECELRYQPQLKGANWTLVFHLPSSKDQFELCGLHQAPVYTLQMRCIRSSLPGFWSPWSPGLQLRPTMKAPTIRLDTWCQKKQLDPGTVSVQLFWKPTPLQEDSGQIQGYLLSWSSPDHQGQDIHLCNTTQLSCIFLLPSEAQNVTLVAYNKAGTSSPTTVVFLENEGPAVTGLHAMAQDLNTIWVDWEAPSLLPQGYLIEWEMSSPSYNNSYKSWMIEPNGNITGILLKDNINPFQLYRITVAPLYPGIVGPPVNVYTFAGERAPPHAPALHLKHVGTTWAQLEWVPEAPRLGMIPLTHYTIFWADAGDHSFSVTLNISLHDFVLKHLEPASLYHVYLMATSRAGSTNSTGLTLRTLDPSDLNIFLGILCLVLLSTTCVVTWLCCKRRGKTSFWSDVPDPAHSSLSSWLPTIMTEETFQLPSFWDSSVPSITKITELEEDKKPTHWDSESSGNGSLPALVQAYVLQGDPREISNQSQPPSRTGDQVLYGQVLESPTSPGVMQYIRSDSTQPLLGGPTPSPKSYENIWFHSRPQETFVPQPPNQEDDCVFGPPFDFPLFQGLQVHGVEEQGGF
# Assays:
# G-CSF receptor [1] = biological target: T1, G-CSF receptor; experiment: Luciferase reporter gene assay in G-CSF-responsive NFS60 cells; type: cell-based, murine; settings: for activation in the luciferase assay: concentration range of 1 to 100 micromolar
# Description: Activity of compound 1a is below the threshold of 150% over background. The study was performed as a Luciferase assay configured on the G-CSF-responsive NFS60 cell line as described in Tian et al., Science 281, 257-259 (1998). The experiments shown in FIGS. 2-8 used the same NFS60 cell line.
# Compounds of the present invention were tested for potency as agonist of the G-CSF receptor in a Luciferase reporter gene assay such as described in Tian et al., Science 281, 257-259 (1998). The NFS60 cells (Holmes, et al., Proc. Natl. Acad. Sci. USA 82:6687-6691 (1985)) were selected because they express endogenous G-CSF receptors closely matching the pattern of STAT (signal transducers and activators of transcription) activation observed in primary murine and human bone marrow cells.
# CFU-G = CFU-G assay; type: cell-based, murine; settings: concentration range of 1 to 100 micromolar
# Description: Compounds of this invention are also tested for activity in the following assays: CFU-G assay (an example of which is described in King A. G., Talmadge J., Badger A. M., Pelus L. M. Regulation of colony stimulating activity production from bone marrow stromal cells by the hematoregulatory peptide, HP-5. Exp. Hematol. 20:223-228, 1992) and in vivo evaluation of peripheral blood neutrophil and monocyte count in the mouse (an example of which is described in Pelus, L. M.; King, A. G.; Broxmeyer, H. E.; DeMarsh, P. L.; Petteway, S. R.; Bhatnagar, P. K., In vivo modulation of hematopoiesis by a novel hematoregulatory peptide Exp-Hematol. 1994 22(3):239-47). In order to confirm the requirement for zinc(II) chelation, the above CFU-G assay was also conducted in the presence of EDTA.
# [2] = system: peripheral blood neutrophil and monocyte count; experiment: In vivo evaluation of peripheral blood neutrophil and monocyte count; settings: mouse
# Description: Compounds of this invention are also tested for activity in the following assays: CFU-G assay (an example of which is described in King […]., Badger A. M., Pelus L. M. Regulation of colony stimulating activity production from bone marrow stromal cells by the hematoregulatory peptide, HP-5. Exp. […] M.; King, […].; DeMarsh, […]., In vivo modulation of hematopoiesis by a novel hematoregulatory peptide Exp-Hematol. 1994 22(3):239-47).
# G-CSF/Fc fusion protein = experiment: Isothermal titration microcalorimetry; type: binding; settings: in the presence of zinc
# Description: Zinc-mediated affinity of compounds from this invention for the G-CSF receptor was measured by isothermal titration microcalorimetry experiments. Titration microcalorimetry detects binding as heat originating from the intrinsic bond forming enthalpy change. […] In a separate experiment, the compounds were then assayed in the presence of zinc and a G-CSF/Fc fusion protein, which contained the extracellular domain of the G-CSF receptor presented in a dimeric form due to the Fc component.
# G-CSF receptor [3] = biological target: T1, G-CSF receptor; experiment: Luciferase assay in NFS60 cells in the presence of EDTA; type: cell-based, murine; settings: for G-CSF agonist activity in the presence of EDTA (metal ion mediation): FIGS. 3 and 4
# Description: The media in this assay contained a small amount (1-5 uM) of zinc(II).
# In order to determine the requisiteness of zinc chelation of small organic molecules to agonist activity at the G-CSF receptor, the above luciferase assay was performed in the presence of EDTA.
Molecule,activation in the luciferase assay (G-CSF receptor [1]),activation in the murine CFU-G assay (CFU-G),peripheral blood neutrophil and monocyte count [2],affinity for G-CSF/Fc fusion protein (G-CSF/Fc fusion protein),G-CSF agonist activity in the presence of EDTA (metal ion mediation) (G-CSF receptor [3]),further results
"[Zn+2].c1ccc(C23NC(=Nc4nc5ccccc5[nH]4)NC2(c2ccccn2)NC(=Nc2nc4ccccc4[nH]2)N3)nc1.c1ccc(C23NC(=Nc4nc5ccccc5[nH]4)NC2(c2ccccn2)NC(=Nc2nc4ccccc4[nH]2)N3)nc1 (stereo not drawn) [Compound 1, Bis{2,5-bis[2-benzimidazolylimino]-3a,6a-bis(2-pyridyl)-1,2,3,3a,4,5,6,6a-octahydroimidazo[4,5-d]imidazole-N,N'}-zinc(II)]",above 150 % of control,,,,,
"c1ccc(C23NC(=Nc4nc5ccccc5[nH]4)NC2(c2ccccn2)NC(=Nc2nc4ccccc4[nH]2)N3)nc1 (stereo not drawn) [Compound 1a, 2,5-Bis[2-benzimidazolylimino]-3a,6a-bis(2-pyridyl)-1,2,3,3a,4,5,6,6a-octahydroimidazo[4,5-d]imidazole]",above 150 % of control,above 150 % of control,elevation of peripheral blood neutrophil and monocyte count,"high, submicromolar affinity",abrogated,"luciferase activity (G-CSF agonist activity) (G-CSF receptor [1]; NFS60 cells, absence of zinc, FIG. 1): < 150 % over background; luciferase activity (G-CSF receptor [1]; NFS60 cells, presence of 1 uM zinc (II), FIG. 2): about 350 % over control; G-CSF agonist efficacy (G-CSF receptor [1]; presence of 1 uM zinc(II), at 1 uM, FIG. 2): 350 % over background; effect of EDTA on luciferase activity (G-CSF receptor [3]; EDTA 1.2 millimolar, media contained 1-5 uM zinc(II), FIG. 3): antagonized"
"c1ccc(C23NC(=Nc4nc5ccccc5[nH]4)NC2(c2ccccc2)NC(=Nc2nc4ccccc4[nH]2)N3)cc1 (stereo not drawn) [Compound 2a, 2,5-Bis[2-benzimidazolylimino]-3a,6a-diphenyl-1,2,3,3a,4,5,6,6a-octahydroimidazo[4,5-d]imidazole]",above 150 % of control,,,,,
"Cc1ccc2nc(N=C3NC4(c5ccccn5)NC(=Nc5nc6ccccc6[nH]5)NC4(c4ccccn4)N3)[nH]c2c1.O=C(O)C(F)(F)F.O=C(O)C(F)(F)F (stereo not drawn) [Compound 3a, 5-(2-benzimidazolylimino)-2-[(5-methyl-2-benzimidazolyl)imino]-3a,6a-bis(2-pyridyl)-1,2,3,3a,4,5,6,6a-octahydroimidazo[4,5-d]imidazole bis(trifluoroacetate) salt]",above 150 % of control,above 150 % of control,elevation of peripheral blood neutrophil and monocyte count,"high, submicromolar affinity",,
zinc (II) [reference compound],,,,,,"effect of metal chlorides on the EDTA depleted activity of Compound 1a (G-CSF receptor [3]; 50 micromolar EDTA, metal at 0.5-10 micromolar, FIGS. 7 and 8): can overcome the inhibition"
"recombinant G-CSF: natural ligand for the G-CSF receptor (G-CSF or recombinant G-CSF) (protein, UniProt P09919 31-207, looked up) Granulocyte …: TPLGPASSLPQSFLLKCLEQVRKIQGDGAALQEKLVSECATYKLCHPEELVLLGHSLGIPWAPLSSCPSQALQLAGCLSQLHSGLFLYQGLLQALEGISPELGPTLDTLQLDVADFATTIWQQMEELGMAPALQPTQGAMPAFASAFQRRAGGVLVASHLQSFLEVSYRVLRHLAQP",,,,,not mediated by metal ions,"effect of EDTA on luciferase activity (G-CSF receptor [3]; EDTA 1.2 and 5 millimolar, FIG. 4): little effect"
